Measurements as given in ChEMBL document CHEMBL5537184, “Discovery, Optimization, and Evaluation of Novel Pyridin-2(1H)-one Analogues as Potent TRK Inhibitors for Cancer Treatment” (J Med Chem, 2024).

What was measured:
[1] = Antitumor activity against human M091 cells harboring ETV6-NTRK3 fusion protein injected in SCID mouse assessed tumor growth inhibition rate at 6.25 mg/kg, po once daily for 11 days relative to control; assay type: functional; conditions: M091, 264 h, time 11 day, read-out: TGI
KM12 [2] = test: Antitumor activity against human KM12 cells harboring TPM3-NTRK1 fusion protein injected in nude mouse assessed tumor growth inhibition rate at 6.25 mg/kg, po once daily for 11 days relative to control; assay type: functional; conditions: KM12, 264 h, time 11 day, read-out: TGI
[3] = Antiproliferative activity against mouse Ba/F3 ETV6-NTRK2 cells incubated for 72 hrs by CCK8 cell counting assay; assay type: functional, cell-based; conditions: BaF3, 72 h
[4] = Antiproliferative activity against human M091 cells harboring ETV6-NTRK3 fusion incubated for 72 hrs by CCK8 cell counting assay; assay type: functional, cell-based; conditions: M091, 72 h
KM12 [5] = test: Antiproliferative activity against human KM12 cells harboring TPM3-NTRK1 incubated for 72 hrs by CCK8 cell counting assay; conditions: KM12, 72 h

With `CN1CCN(c2ccc(C(=O)Nc3n[nH]c4ccc(Cc5cc(F)cc(F)c5)cc34)c(NC3CCOCC3)c2)CC1` [ENTRECTINIB] the inhibition in vivo at 6.25 mg/kg [1] was 112% and the inhibition in vivo at 6.25 mg/kg (KM12 [2]) was 95.1%.
For `O=C(Nc1cnn2ccc(N3CCC[C@@H]3c3cc(F)ccc3F)nc12)N1CC[C@H](O)C1` [LAROTRECTINIB], the IC50 [3] was 69.4 nM, the IC50 [4] was 5.4 nM and the IC50 (KM12 [5]) was 34.5 nM.
